The values that follow come from article PMC11637191, “The pH-dependence of efflux ratios determined with bidirectional transport assays across cellular monolayers” (International Journal of Pharmaceutics: X, 2024).

For series [1], the system named is MDCK-MDR1 cells. Particulars: pH 7.4 iso-method, cited from earlier work; for Papp, inhibitor: with inhibitor; for Papp, B⟶A: without inhibitor.
Series [2] has as its system MDCK-MDR1 cells. Briefly: Comparison of Papp,B-A with and without inhibitor in MDCK-MDR1 cells (own and literature data). As to conditions: calculated from literature Papp,B⟶A and Papp with inhibitor; pH 7.4 iso-method.
Series [3] can be described thus: Calculation of neutral fraction (fn).
For series [4] the following is noted: basic; no reference given; cited from earlier work.
Where [5] appears, read: ref Troutman and Thakker (2003).

Like-named read-outs stand apart in the source and are kept apart here.

As to `CN(C)CCC(c1ccc(Br)cc1)c1ccccn1` (stereo not shown) [Brompheniramine], in the series on MDCK-MDR1 cells [1] (ref Obradovic et al. (2007)), the “Papp, inhibitor” value was 76.8 ×10⁻⁶ cm/s and the “Papp, B⟶A” value was 118.8 ×10⁻⁶ cm/s. In the series with MDCK-MDR1 cells [2], the Factor difference was 2.

With `CN(C)CCC(c1ccc(Cl)cc1)c1ccccn1` (stereo not shown) [Chlorpheniramine], in the series on MDCK-MDR1 cells [1] (ref Obradovic et al. (2007)), the “Papp, inhibitor” value is 66.2 ×10⁻⁶ cm/s and the “Papp, B⟶A” value is 93.7 ×10⁻⁶ cm/s. Moreover, the Factor difference in the series with MDCK-MDR1 cells [2] is recorded as 1.

In the case of `CN/C(=N/CCSCc1nc[nH]c1C)NC#N` [Cimetidine], in the series on MDCK-MDR1 cells [1] (ref Doan et al. (2002)), the “Papp, inhibitor” value was 0.515 ×10⁻⁶ cm/s and the “Papp, B⟶A” value was 1.89 ×10⁻⁶ cm/s. Besides, the Factor difference in the series with MDCK-MDR1 cells [2] is recorded as 4.

For `CN1CCC[C@@H]1CCO[C@](C)(c1ccccc1)c1ccc(Cl)cc1` [Clemastine], the “Papp, B⟶A” value in the series with MDCK-MDR1 cells [1] (ref Obradovic et al. (2007)) was 156.4 ×10⁻⁶ cm/s. Also, in the series with MDCK-MDR1 cells [2], the Factor difference is 3.

Take `CN1CCC[C@@H]1Cc1c[nH]c2ccc(CCS(=O)(=O)c3ccccc3)cc12` [Eletriptan]: in the series on MDCK-MDR1 cells [1] (ref Doan et al. (2002)), the “Papp, inhibitor” value was 42.9 ×10⁻⁶ cm/s and the “Papp, B⟶A” value was 66.3 ×10⁻⁶ cm/s. Besides, the Factor difference with MDCK-MDR1 cells [2] is recorded as 2.

As to `NS(=O)(=O)c1cc(C(=O)O)c(NCc2ccco2)cc1Cl` [Furosemide], the fn in series [3] (neutral fraction at pH 9) is 0.0%.

Turning to `Nc1ccn([C@@H]2CS[C@H](CO)O2)c(=O)n1` [Lamiduvine], in the series with MDCK-MDR1 cells [1] (ref De Souza et al. (2009)), the “Papp, inhibitor” value was 0.11 ×10⁻⁶ cm/s and the “Papp, B⟶A” value was 0.18 ×10⁻⁶ cm/s. In addition, the Factor difference with MDCK-MDR1 cells [2] was 2.

With `CN(C)C(=O)C(CCN1CCC(O)(c2ccc(Cl)cc2)CC1)(c1ccccc1)c1ccccc1` [Loperamide], in the series with MDCK-MDR1 cells [1] (ref Doan et al. (2002)), the “Papp, inhibitor” value is 45.6 ×10⁻⁶ cm/s and the “Papp, B⟶A” value was 77.3 ×10⁻⁶ cm/s. For the same compound, in the series on MDCK-MDR1 cells [1] (ref Wang et al. (2005)), the “Papp, inhibitor” value was 12 ×10⁻⁶ cm/s and the “Papp, B⟶A” value is 42.64 ×10⁻⁶ cm/s.

In the case of `C[C@H]1C[C@@H]2[C@H]([C@@H](O)C[C@@]3(C)[C@H]2CC[C@]3(O)C(=O)CO)[C@@]2(C)C=CC(=O)C=C12` [Methylprednisolone], in the series with MDCK-MDR1 cells [1] (setting [5]), the “Papp, inhibitor” value is 28.48 ×10⁻⁶ cm/s and the “Papp, B⟶A” value is 94.3 ×10⁻⁶ cm/s. The Factor difference in the series with MDCK-MDR1 cells [2] is given as 3.

On to `Cc1c(O)cccc1C(=O)N[C@@H](CSc1ccccc1)[C@H](O)CN1C[C@H]2CCCC[C@H]2C[C@H]1C(=O)NC(C)(C)C` [Nelfinavir], for which, in the series with MDCK-MDR1 cells [1] (ref Doan et al. (2002)), the “Papp, inhibitor” value was 19.7 ×10⁻⁶ cm/s and the “Papp, B⟶A” value was 78.6 ×10⁻⁶ cm/s. For the same compound, the Factor difference in the series on MDCK-MDR1 cells [2] is on record as 4.

In the case of `CN(C)C(=O)Oc1cccc([N+](C)(C)C)c1` [Neostigmine], in the series with MDCK-MDR1 cells [1] (ref Doan et al. (2002)), the “Papp, inhibitor” value was 0.852 ×10⁻⁶ cm/s and the “Papp, B⟶A” value was 1.54 ×10⁻⁶ cm/s. The Factor difference in the series on MDCK-MDR1 cells [2] is on record as 2.

With `C=C[C@H]1C[N@@]2CC[C@H]1C[C@@H]2[C@@H](O)c1ccnc2ccc(OC)cc12` [Quinidine], the “Papp, inhibitor” value was 0.176 ×10⁻⁶ cm/s with MDCK-MDR1 cells [1] (ref Gertz et al. (2010)), 25.6 ×10⁻⁶ cm/s in the series with MDCK-MDR1 cells [1] (setting [5]) and 10 ×10⁻⁶ cm/s in the series with MDCK-MDR1 cells [1] (ref Wang et al. (2005)). Further, the “Papp, B⟶A” value in the series on MDCK-MDR1 cells [1] (ref Gertz et al. (2010)) was 66.88 ×10⁻⁶ cm/s; in the series on MDCK-MDR1 cells [1] (setting [5]), 156 ×10⁻⁶ cm/s; in the series on MDCK-MDR1 cells [1] (ref Wang et al. (2005)) it was 114.82 ×10⁻⁶ cm/s.

As for `CNC(=C[N+](=O)[O-])NCCSCc1ccc(CN(C)C)o1` [Ranitidine], in the series on MDCK-MDR1 cells [1] (setting [5]), the “Papp, inhibitor” value is 1.25 ×10⁻⁶ cm/s and the “Papp, B⟶A” value was 3.29 ×10⁻⁶ cm/s. Besides, the Factor difference in the series on MDCK-MDR1 cells [2] is 3.

On to `COC(=O)c1ccccc1-c1c2ccc(=N)cc-2oc2cc(N)ccc12` [Rhodamine 123], for which the entries for the “Papp, inhibitor” value with MDCK-MDR1 cells [1] (ref Tang et al. (2004)), with MDCK-MDR1 cells [1] (setting [5]) and in the series on MDCK-MDR1 cells [1] (ref Wang et al. (2005)) were 1.173 ×10⁻⁶ cm/s, 1.16 ×10⁻⁶ cm/s and 2.2 ×10⁻⁶ cm/s, respectively. Further, the “Papp, B⟶A” value in the series with MDCK-MDR1 cells [1] (ref Tang et al. (2004)) was 10.17 ×10⁻⁶ cm/s; in the series on MDCK-MDR1 cells [1] (setting [5]) it was 15.3 ×10⁻⁶ cm/s; in the series on MDCK-MDR1 cells [1] (ref Wang et al. (2005)), 7.63 ×10⁻⁶ cm/s.

In the case of `CC(C)c1nc(CN(C)C(=O)N[C@H](C(=O)N[C@@H](Cc2ccccc2)C[C@H](O)[C@H](Cc2ccccc2)NC(=O)OCc2cncs2)C(C)C)cs1` [Ritonavir], the “Papp, B⟶A” value in the series with MDCK-MDR1 cells [1] (setting [5]) was 23.6 ×10⁻⁶ cm/s. Also, the Factor difference in the series with MDCK-MDR1 cells [2] is 6.

For `CC(C)(C)NC(=O)[C@@H]1C[C@@H]2CCCC[C@@H]2CN1C[C@@H](O)[C@H](Cc1ccccc1)NC(=O)[C@H](CC(N)=O)NC(=O)c1ccc2ccccc2n1` [Saquinavir], in the series with MDCK-MDR1 cells [1] (ref Doan et al. (2002)), the “Papp, inhibitor” value is 22 ×10⁻⁶ cm/s and the “Papp, B⟶A” value was 39.5 ×10⁻⁶ cm/s. Further, in the series with MDCK-MDR1 cells [1] (setting [5]), the “Papp, inhibitor” value was 12.6 ×10⁻⁶ cm/s and the “Papp, B⟶A” value was 108 ×10⁻⁶ cm/s.

As to `CC(C)NCC(O)c1ccc(NS(C)(=O)=O)cc1` (stereo not shown) [Sotolol], in the series with MDCK-MDR1 cells [1] (ref Liu et al. (2012)), the “Papp, inhibitor” value is 0.2 ×10⁻⁶ cm/s and the “Papp, B⟶A” value is 1.05 ×10⁻⁶ cm/s. Further, the Factor difference with MDCK-MDR1 cells [2] is reported as 5.

For orientation: pKa means the negative logarithm of the acid dissociation constant. As to `CC(C)(C)NCC(O)COc1ccc(NC(=O)NC2CCCCC2)cc1` (stereo not shown) [Talinolol], the pKa in series [4] was 9.4. Besides, the fn in series [3] (neutral fraction at pH 8) is 5%.

`CC(C)(C)c1ccc(C(O)CCCN2CCC(C(O)(c3ccccc3)c3ccccc3)CC2)cc1` (stereo not shown) [Terfenadine]: in the series on MDCK-MDR1 cells [1] (ref Doan et al. (2002)), the “Papp, inhibitor” value is 28.5 ×10⁻⁶ cm/s and the “Papp, B⟶A” value was 42.1 ×10⁻⁶ cm/s. Besides, in the series on MDCK-MDR1 cells [1] (ref Obradovic et al. (2007)), the “Papp, inhibitor” value was 2.39 ×10⁻⁶ cm/s and the “Papp, B⟶A” value is 11.43 ×10⁻⁶ cm/s.

Consider `CC[C@]1(O)C[C@@H]2CN(CCc3c([nH]c4ccccc34)[C@@](C(=O)OC)(c3cc4c(cc3OC)N(C)[C@H]3[C@@](O)(C(=O)OC)[C@H](OC(C)=O)[C@]5(CC)C=CCN6CC[C@]43[C@@H]65)C2)C1` [Vinblastine], for which the “Papp, inhibitor” value in the series with MDCK-MDR1 cells [1] (ref Taub et al. (2005)) was 1.92 ×10⁻⁶ cm/s; in the series with MDCK-MDR1 cells [1] (setting [5]), 17.7 ×10⁻⁶ cm/s; in the series on MDCK-MDR1 cells [1] (ref Wang et al. (2005)), 1.2 ×10⁻⁶ cm/s. In addition, the “Papp, B⟶A” value with MDCK-MDR1 cells [1] (ref Taub et al. (2005)) was 13.22 ×10⁻⁶ cm/s; with MDCK-MDR1 cells [1] (setting [5]), 35.7 ×10⁻⁶ cm/s; in the series with MDCK-MDR1 cells [1] (ref Wang et al. (2005)) it was 10.77 ×10⁻⁶ cm/s.

With `CCOC(=O)CN[C@@H](C(=O)N1CC[C@H]1C(=O)NCc1ccc(/C(N)=N\O)cc1)C1CCCCC1` [Ximelagatran], in the series on MDCK-MDR1 cells [1] (ref Eriksson et al. (2006)), the “Papp, inhibitor” value was 7 ×10⁻⁶ cm/s and the “Papp, B⟶A” value was 39 ×10⁻⁶ cm/s. For the same compound, the Factor difference in the series with MDCK-MDR1 cells [2] was 6.

For `Cc1cn([C@H]2C[C@H](N=[N+]=[N-])[C@@H](CO)O2)c(=O)[nH]c1=O` [Zidovudine], in the series on MDCK-MDR1 cells [1] (ref De Souza et al. (2009)), the “Papp, inhibitor” value was 3.26 ×10⁻⁶ cm/s and the “Papp, B⟶A” value was 9.98 ×10⁻⁶ cm/s. Further, the Factor difference in the series on MDCK-MDR1 cells [2] is 3.
